Source: patent EP3027591B1, “NOVEL DERIVATIVES OF A 3,4-DIHYDROISOQUINOLINE-3-CARBOXYLIC ACID HAVING ANTI-CANCER PROPERTIES, A METHOD FOR THEIR SYNTHESIS, PHARMACEUTICAL COMPOSITIONS COMPRISING SAID DERIVATIVES, AND THEIR USE” (Narodowy Instytut Zdrowia Publicznego Panstwowy Zaklad …, priority 2013, dated 2015)
Converted amounts (≈) assume the structure as drawn. Read-outs that look alike come from different tables or passages of the source.

What was measured:
[1] = target: T1, pig kidney microsomal leucyl aminopeptidase, Type IV-S (Sus scrofa, UniProt P15145); test: Leucyl aminopeptidase inhibition (L-leucine p-nitroanilide substrate, absorbance 405 nm); type: biochemical; conditions: pre-incubation 30 minutes at 37 °C, pH 8.5; IC50 by linear regression
T1 construct: pig kidney microsomal leucyl aminopeptidase, Type IV-S (Sigma-Aldrich) 3.5 mg of protein/ml; purchased Sigma-Aldrich; host or cells: pig kidney (microsomal fraction)
T1 sequence (P15145 1-963): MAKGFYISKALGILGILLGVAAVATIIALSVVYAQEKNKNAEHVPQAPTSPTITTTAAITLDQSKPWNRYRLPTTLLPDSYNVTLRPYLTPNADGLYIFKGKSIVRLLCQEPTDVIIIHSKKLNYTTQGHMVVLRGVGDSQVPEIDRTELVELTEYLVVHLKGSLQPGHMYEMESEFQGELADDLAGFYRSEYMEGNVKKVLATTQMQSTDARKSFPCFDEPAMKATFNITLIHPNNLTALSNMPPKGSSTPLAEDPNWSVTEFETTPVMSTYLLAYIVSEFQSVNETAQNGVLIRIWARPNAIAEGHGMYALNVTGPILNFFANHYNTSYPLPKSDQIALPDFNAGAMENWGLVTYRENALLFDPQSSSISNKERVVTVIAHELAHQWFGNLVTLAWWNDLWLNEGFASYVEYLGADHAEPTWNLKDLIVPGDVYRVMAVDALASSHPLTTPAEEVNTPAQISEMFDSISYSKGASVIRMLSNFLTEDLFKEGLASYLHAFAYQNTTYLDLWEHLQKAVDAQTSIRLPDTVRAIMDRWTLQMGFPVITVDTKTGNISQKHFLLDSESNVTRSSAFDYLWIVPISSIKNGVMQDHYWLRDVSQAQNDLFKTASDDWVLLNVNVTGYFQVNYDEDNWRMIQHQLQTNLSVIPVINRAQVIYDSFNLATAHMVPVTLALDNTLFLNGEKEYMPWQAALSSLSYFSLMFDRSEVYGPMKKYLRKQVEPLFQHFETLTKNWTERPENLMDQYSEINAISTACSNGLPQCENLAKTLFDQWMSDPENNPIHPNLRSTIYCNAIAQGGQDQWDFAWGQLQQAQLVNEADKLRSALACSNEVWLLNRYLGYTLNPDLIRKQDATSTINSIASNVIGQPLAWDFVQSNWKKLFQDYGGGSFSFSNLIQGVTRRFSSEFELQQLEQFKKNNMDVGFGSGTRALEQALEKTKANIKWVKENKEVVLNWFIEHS
Procedure: Leucyl aminopeptidase inhibition according to Cahan R., Hetzroni E., Nisnevitch M., Nitzan Y.: Purification and Identification of a Novel Leucine Aminopeptidase from Bacillus Thuringiensis israelensis. Curr. Microbial (2007) 55: 413-419.
• 1. Enzyme: pig kidney microsomal leucyl aminopeptidase, Type IV-S (Sigma-Aldrich) 3.5 mg of protein/ml, 28 U/mg of protein; diluted with 0.02M Tris-HCl + 0.5 mM CaCl2 buffer pH=8.5 until activity 0.01225U achieved • 2. Substrate: L-leucine p-nitroanilide: 4.2 mg / 269 µl DMSO; solution diluted 1:19 with 0.02 M Tris-HCl buffer, pH = 8.5 + 0.5 mM CaCl2 • 3. 0.02 M Tris-HCl buffer, pH = 8.5 + 0.5 mM CaCl2 • 4. DMSO, inhibitor solution in DMSO
5 µl of leucyl aminopeptidase ([…]), 70 µl of Tris, 5 µl of inhibitor solution in different concentrations (in DMSO) were added to the wells of a microtitration plate, followed by pre-incubation for 30 minutes at 37 °C. Next, 20µl of diluted L-leucine p-nitroanilide solution was added, whereupon the reaction mixture was incubated for 20 minutes at 37 °C, with measurement of absorbance changes for wavelength 405 nm (Fluorostar, Omega, BMG Labtech). The control sample for the enzyme contained analogous components, while instead of the inhibitor solution DMSO (5 µl) was added.
For each inhibitor concentration the percentage inhibition was calculated. The inhibitor concentration required for 50% of enzyme activity inhibition (IC50) was calculated based on linear regression data between the percentage inhibition and the concentration for a given inhibitor.

[2] = tested on: Balb/3T3 (normal mouse fibroblasts); test: Cytotoxic activity against normal cells, SRB test; type: cell-based; conditions: Balb/3T3, 72-hour culture
Procedure: (§1) 4.3. Cytotoxic activity evaluation against normal cell lines with diverse tissue origins using the SRB test:
(§2) • a) normal mouse fibroblasts (BALB/3T3), • b) normal mammary gland cells (MCF-10), • c) normal human epithelium (HLMEC)
(§3) The stock solution of the tested compound with concentration of 20 mg/ml was prepared day before the analysis by dissolving the preparation in DMSO, followed by storage in -20°C. After 24 hours the preparation was thawed and diluted with the culture medium. The compounds were tested in concentrations of 100, 10, 1, 0.1 0.01 µg/ml.
(§4) The following human cancer cell lines were used in the study: HL-60 (promyelocytic leukemia), HL-60/MX2 (promyelocytic leukemia, line resistant to mitoxantrone), MCF7 (mammary gland cancer), LoVo (colorectal cancer), LoVo/Dx (colorectal cancer with multidrug resistance), HCV29T (bladder cancer), A498 (kidney cancer), A549 (lung cancer) and LNCaP (prostate cancer), as well as normal cell lines: BALB3T3 (normal mouse fibroblasts), MCF-10 (normal mammary gland cells) and HLMEC (normal human endothelium).
(§5) The cells in the phase of logarithmic growth were seeded on a 96-well plate (Sarsted) in quantity of 1 x 10^4 cells/well, and then incubated at 37°C, 5% CO2 for 24 hours. Subsequently, the tested compound was added in different concentrations and the incubation was carried out. […] For each assay the samples containing predetermined preparation concentrations were applied in triplicates. The experiments were repeated 3-5 times.
(§6) Sulphorhodamine B (SRB) is an anionic dye which binds to […] amino acids of cellular proteins. The determination of cytotoxic activity in the assay is based on the measurement of the amount of cellular proteins.
(§7) After the incubation is finished the attached cells are fixed with cold 50% TCA (4°C) at 4°C for 1 hour. Next, each well is washed with water and air dried, repeating this step 5 times.
(§8) 0.4% SRB solution (Sigma-Aldrich) dissolved in 1% acetic acid is added consecutively to each well and the staining is carried out for 30 minutes. The unbound dye is removed and the cells are washed 4 times with 1% acetic acid. Next, the plate is air dried for about 5 minutes.
(§9) The bound dye is dissolved by adding 10 mM Tris-base to each well and then OD is determined for wavelength 540 nm (Multiscan RC photometer, Labsystes, Helsinki).

[3] = tested on: HLMEC (normal human epithelium); test: Cytotoxic activity against normal cells, SRB test; type: cell-based; conditions: 72-hour culture
Procedure: as §1, §2, §3, §4, §5, §6, §7, §8, §9

[4] = tested on: MCF-10 (normal mammary gland cells); test: Cytotoxic activity against normal cells, SRB test; type: cell-based
Procedure: as §1, §2, §3, §4, §5, §6, §7, §8, §9

[5] = tested on: HL-60 (promyelocytic leukemia); test: Anti-proliferative activity, MTT test; type: cell-based, human; conditions: HL-60, 72-hour culture
Procedure: (§10) 4.2. Anti-proliferative activity evaluation using the MTT test [Marcinkowska et al.: J. Steroid Biochem. Mol. 76: 71-78, 1998] against human cancer cell lines with diverse tissue origins and determination of the IC50 concentration: • a) promyelocytic leukemia HL-60, • b) promyelocytic leukemia HL-60/MX2 (with multidrug resistance)
as §3, §4, §5
(§11) The method involves a measurement of cell number increase inhibition utilizing the redox activity of mitochondria. The determination of biological activity with the MTT (3-(4,5-dimethylthiazol-2-yl)-2,5-diphenyltetrazolium bromide) assay is based on the assumption that reduction of the dye occurs only in viable cells. As a result of mitochondrial dehydrogenase activity the water-soluble tetrazolium salt (thiazolyl blue […] - MTT) is converted to water-insoluble formazan crystals. The quantity of the formed formazan crystals is proportional to the number of cells.
(§12) 3-4 hours before the end of cell incubation 20 µl of MTT solution (5 mg/ml) was added to each well. Next, 80 µl of dissolving mixture (with the following composition: 225 ml DMF (POCh), 67.5 g SDS (Sigma-Aldrich), 275 ml distilled H2O) was added. After 24 hours, formazan crystals were dissolved and OD of the samples was measured for wavelength 570 nm (Multiskan PC photometer, Labsystem, Helsinki).

[6] = tested on: HL-60 MX2 (promyelocytic leukemia with multidrug resistance); test: Anti-proliferative activity, MTT test; type: cell-based, human
Procedure: as §10, §3, §4, §5, §11, §12

A498 (kidney cancer) = test: Anti-proliferative activity, SRB test; type: cell-based, human; conditions: A498, 72-hour culture
From the text: (§13) 4.1. Anti-proliferative activity evaluation using the SRB test [Skehan et al., J. Natl. Cancer Inst., 82: 1107-1112, 1990] against human cancer cell lines with diverse tissue origins and determination of the IC50 concentration: • a) colorectal cancer LoVo, • b) colorectal cancer LoVo/DX (with multidrug resistance), • c) breast cancer MCF-7, • d) prostate cancer LNCaP, • e) bladder cancer HCV29T, • f) kidney cancer A498, • g) lung cancer A549
as §3, §4, §5, §6, §7, §8, §9

A549 (lung cancer) = test: Anti-proliferative activity, SRB test; type: cell-based, human; conditions: A549, 72-hour culture
From the text: as §13, §3, §4, §5, §6, §7, §8, §9

HCV29T (bladder cancer) = test: Anti-proliferative activity, SRB test; type: cell-based, human; conditions: 72-hour culture
From the text: as §13, §3, §4, §5, §6, §7, §8, §9

LNCaP (prostate cancer) = test: Anti-proliferative activity, SRB test; type: cell-based, human; conditions: 72-hour culture
From the text: as §13, §3, §4, §5, §6, §7, §8, §9

Lovo (colorectal cancer) = test: Anti-proliferative activity, SRB test; type: cell-based, human; conditions: 72-hour culture
From the text: as §13, §3, §4, §5, §6, §7, §8, §9

[7] = tested on: Lovo/Dx (colorectal cancer with multidrug resistance); test: Anti-proliferative activity, SRB test; type: cell-based, human; conditions: 72-hour culture
From the text: as §13, §3, §4, §5, §6, §7, §8, §9

MCF-7 (breast cancer) = test: Anti-proliferative activity, SRB test; type: cell-based, human
From the text: as §13, §3, §4, §5, §6, §7, §8, §9

[8] = Homo sapiens, MCF10, MCF-10, 72-hour culture, read-out: IC50
[9] = Homo sapiens, HL60/MX2, HL-60 MX2, 72-hour culture, read-out: IC50
[10] = Homo sapiens, MCF7, MCF-7, 72-hour culture, read-out: IC50

SMILES	IC50 [1]	IC50 ([2]; Mus musculus, read-out: IC50)	IC50 ([3]; Homo sapiens, read-out: IC50)	IC50 [4, 8]	IC50 ([5]; Homo sapiens, read-out: IC50)	IC50 [6, 9]	IC50 (A498 (kidney cancer); Homo sapiens, read-out: IC50)	IC50 (A549 (lung cancer); Homo sapiens, read-out: IC50)	IC50 (HCV29T (bladder cancer); Homo sapiens, read-out: IC50)	IC50 (LNCaP (prostate cancer); Homo sapiens, read-out: IC50)	IC50 (Lovo (colorectal cancer); Homo sapiens, read-out: IC50)	IC50 ([7]; Homo sapiens, read-out: IC50)	IC50 (MCF-7 (breast cancer); [10])	also measured
CCOC(=O)C1(C(=O)OCC)Cc2cc(OCc3ccccc3)cc(OCc3ccccc3)c2C=N1 [Compound 3, 6,8-dibenzyloxy-3,4-dihydroisoquinoline-3,3-dicarboxylic acid diethyl ester]	28 µM	17.4 ± 7.9 µg/mL (≈ 35.6 µM)	3.3 ± 0.3 µg/mL (≈ 6.77 µM)	15.3 µg/mL (≈ 31.4 µM)	0.12 µg/mL (≈ 0.246 µM)	1.3 µg/mL (≈ 2.67 µM)	6.5 ± 1.5 µg/mL (≈ 13.3 µM)	6.4 ± 2.3 µg/mL (≈ 13.1 µM)	4.3 ± 0.7 µg/mL (≈ 8.82 µM)	1.6 ± 0.3 µg/mL (≈ 3.28 µM)	3.1 ± 0.3 µg/mL (≈ 6.36 µM)	2 ± 0.8 µg/mL (≈ 4.1 µM)	4.7 ± 0.8 µg/mL (≈ 9.64 µM)	
CCOC(=O)C1(C(=O)OCC)Cc2cc(O)cc(O)c2C=N1 [Compound 4, 6,8-dihydroxy-3,4-dihydroisoquinoline-3,3-dicarboxylic acid diethyl ester]	1350 µM													
O=C(O)C1Cc2cc(O)c(O)c(O)c2C=N1 (stereo not drawn) [Compound 8, 6,7,8-trihydroxy-3,4-dihydroisoquinoline-3-carboxylic acid]	3800 µM	52.5 ± 22.3 µg/mL (≈ 235 µM)	33.4 ± 5 µg/mL (≈ 150 µM)	18.9 ± 11.4 µg/mL (≈ 84.7 µM)	27.7 ± 4.3 µg/mL (≈ 124 µM)	33.2 ± 2.7 µg/mL (≈ 149 µM)	40 ± 18.4 µg/mL (≈ 179 µM)	44.3 ± 6.7 µg/mL (≈ 198 µM)	28.7 ± 7.2 µg/mL (≈ 129 µM)	30.9 ± 5.7 µg/mL (≈ 138 µM)	33.6 ± 9.5 µg/mL (≈ 151 µM)	30.1 ± 2.3 µg/mL (≈ 135 µM)	18.9 ± 11.4 µg/mL (≈ 84.7 µM)	
N.N.[Cl][Pt][Cl] [Cisplatin, reference compound]														IC50 [2]: 2.4 ± 0.3 µg/mL; IC50 [3]: 2.6 ± 0.3 µg/mL; IC50 ([4]; MCF-10, 72-hour culture): 0.7 µg/mL; IC50 [5]: 0.4 ± 0.1 µg/mL; IC50 ([6]; HL-60 MX2, 72-hour culture): 0.32 ± 0.02 µg/mL; IC50 (A498 (kidney cancer)): 2.8 ± 0.6 µg/mL; IC50 (A549 (lung cancer)): 3.2 ± 1.0 µg/mL; IC50 (HCV29T (bladder cancer)): 2.7 ± 0.6 µg/mL; IC50 (LNCaP (prostate cancer)): 6.2 ± 1.3 µg/mL; IC50 (Lovo (colorectal cancer)): 2.5 ± 1.3 µg/mL; IC50 [7]: 3.0 ± 0.7 µg/mL; IC50 (MCF-7 (breast cancer); MCF-7, 72-hour culture): 3.6 ± 0.6 µg/mL
